Results as given in PubChem BioAssay (NCI).
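48-hour exposure; five concentrations; linearly interpolated endpoints. GI50 is the concentration that inhibits growth by half. TGI is the concentration that stops growth completely.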

Key:
Test in all cases: DTP human tumour cell line panel, 48 h
SNB-19 CNS = system: SNB-19 CNS
PC-3 prostate = system: PC-3 prostate
HL-60(TB) leukemia = system: HL-60(TB) leukemia
SF-295 CNS = system: SF-295 CNS
SR leukemia = system: SR leukemia
A498 renal = system: A498 renal
OVCAR-8 ovarian = system: OVCAR-8 ovarian
SK-MEL-5 melanoma = system: SK-MEL-5 melanoma
HOP-62 NSCLC = system: HOP-62 NSCLC
T-47D breast = system: T-47D breast
COLO 205 colon = system: COLO 205 colon
BT-549 breast = system: BT-549 breast
IGROV1 ovarian = system: IGROV1 ovarian
A549 NSCLC = system: A549 NSCLC
SF-539 CNS = system: SF-539 CNS
U251 CNS = system: U251 CNS
UO-31 renal = system: UO-31 renal
MDA-MB-231 breast = system: MDA-MB-231 breast
SN12C renal = system: SN12C renal
SNB-75 CNS = system: SNB-75 CNS
CCRF-CEM leukemia = system: CCRF-CEM leukemia
UACC-257 melanoma = system: UACC-257 melanoma
MALME-3M melanoma = system: MALME-3M melanoma
K-562 leukemia = system: K-562 leukemia
SK-OV-3 ovarian = system: SK-OV-3 ovarian
RPMI-8226 leukemia = system: RPMI-8226 leukemia
CAKI-1 renal = system: CAKI-1 renal
SK-MEL-28 melanoma = system: SK-MEL-28 melanoma
HCT-116 colon = system: HCT-116 colon
786-0 renal = system: 786-0 renal
NCI-H226 lung = system: NCI-H226 lung
LOX IMVI melanoma = system: LOX IMVI melanoma
NCI-H23 lung = system: NCI-H23 lung
SK-MEL-2 melanoma = system: SK-MEL-2 melanoma
EKVX NSCLC = system: EKVX NSCLC
OVCAR-5 ovarian = system: OVCAR-5 ovarian
MOLT-4 leukemia = system: MOLT-4 leukemia
KM12 colon = system: KM12 colon
HCT-15 colon = system: HCT-15 colon
NCI/ADR-RES ovarian = system: NCI/ADR-RES ovarian
NCI-H522 lung = system: NCI-H522 lung
DU-145 prostate = system: DU-145 prostate
ACHN renal = system: ACHN renal
TK-10 renal = system: TK-10 renal
HS 578T breast = system: HS 578T breast
HT29 colon = system: HT29 colon
UACC-62 melanoma = system: UACC-62 melanoma
SF-268 CNS = system: SF-268 CNS
M14 melanoma = system: M14 melanoma
MCF7 breast = system: MCF7 breast
OVCAR-4 ovarian = system: OVCAR-4 ovarian
NCI-H460 lung = system: NCI-H460 lung
MDA-MB-435 = system: MDA-MB-435
OVCAR-3 ovarian = system: OVCAR-3 ovarian

## O=C(N/N=C(\CN1CCN(c2cc3[nH]cc(C(=O)O)c(=O)c3cc2F)CC1)c1ccc(Cl)cc1)c1ccncc1
SNB-19 CNS
  GI50: 76.9 µM
  TGI: > 100 µM
PC-3 prostate
  GI50: 22.7 µM
  TGI: 52.4 µM
HL-60(TB) leukemia
  GI50: 19.4 µM
  TGI: 43.3 µM
SF-295 CNS
  GI50: 21 µM
  TGI: 52.1 µM
SR leukemia
  GI50: 18.2 µM
  TGI: 55.4 µM
A498 renal
  GI50: 23.3 µM
  TGI: > 100 µM
OVCAR-8 ovarian
  GI50: 21.4 µM
  TGI: 47.4 µM
SK-MEL-5 melanoma
  GI50: 16.4 µM
  TGI: 31.6 µM
HOP-62 NSCLC
  GI50: 39.4 µM
  TGI: > 100 µM
T-47D breast
  GI50: 42.2 µM
  TGI: > 100 µM
COLO 205 colon
  GI50: 78 µM
  TGI: > 100 µM
BT-549 breast
  GI50: 33.6 µM
  TGI: > 100 µM
IGROV1 ovarian
  GI50: 3.32 µM
  TGI: 26.9 µM
A549 NSCLC
  GI50: 22.3 µM
  TGI: 65.5 µM
SF-539 CNS
  GI50: 28.6 µM
  TGI: 87.4 µM
U251 CNS
  GI50: 33.5 µM
  TGI: > 100 µM
UO-31 renal
  GI50: 18.7 µM
  TGI: 41.8 µM
MDA-MB-231 breast
  GI50: 20.2 µM
  TGI: 46.1 µM
SN12C renal
  GI50: 24.8 µM
  TGI: 61.8 µM
SNB-75 CNS
  GI50: 61.6 µM
  TGI: > 100 µM
CCRF-CEM leukemia
  GI50: 22.5 µM
  TGI: > 100 µM
UACC-257 melanoma
  GI50: 23.2 µM
  TGI: 49 µM
MALME-3M melanoma
  GI50: 18.6 µM
  TGI: 58 µM
K-562 leukemia
  GI50: 26.9 µM
  TGI: > 100 µM
SK-OV-3 ovarian
  GI50: 78.6 µM
  TGI: > 100 µM
RPMI-8226 leukemia
  GI50: 19 µM
  TGI: 43 µM
CAKI-1 renal
  GI50: 1.96 µM
  TGI: 5.61 µM
SK-MEL-28 melanoma
  GI50: > 100 µM
  TGI: > 100 µM
HCT-116 colon
  GI50: 37.5 µM
  TGI: > 100 µM
786-0 renal
  GI50: 39.9 µM
  TGI: > 100 µM
NCI-H226 lung
  GI50: 23.1 µM
  TGI: 80.5 µM
LOX IMVI melanoma
  GI50: 16.8 µM
  TGI: 33.4 µM
NCI-H23 lung
  GI50: 30.8 µM
  TGI: 81.2 µM
SK-MEL-2 melanoma
  GI50: 30.7 µM
  TGI: 74.4 µM
EKVX NSCLC
  GI50: 38 µM
  TGI: > 100 µM
OVCAR-5 ovarian
  GI50: 50.9 µM
  TGI: > 100 µM
MOLT-4 leukemia
  GI50: 22.8 µM
  TGI: 52.6 µM
KM12 colon
  GI50: 30.6 µM
  TGI: > 100 µM
HCT-15 colon
  GI50: 21.1 µM
  TGI: 42.8 µM
NCI/ADR-RES ovarian
  GI50: 28.4 µM
  TGI: 66.3 µM
NCI-H522 lung
  GI50: 22.7 µM
  TGI: 52.9 µM
DU-145 prostate
  GI50: 36 µM
  TGI: > 100 µM
ACHN renal
  GI50: 18.4 µM
  TGI: 42.6 µM
TK-10 renal
  GI50: 43 µM
  TGI: > 100 µM
HS 578T breast
  GI50: 29.1 µM
  TGI: 99.2 µM
HT29 colon
  GI50: 37 µM
  TGI: > 100 µM
UACC-62 melanoma
  GI50: 25.6 µM
  TGI: 61.9 µM
SF-268 CNS
  GI50: 25.8 µM
  TGI: 89.9 µM
M14 melanoma
  GI50: 32.3 µM
  TGI: 79.5 µM
MCF7 breast
  GI50: 21 µM
  TGI: 66.9 µM
OVCAR-4 ovarian
  GI50: 39.8 µM
  TGI: > 100 µM
NCI-H460 lung
  GI50: 22.7 µM
  TGI: 67.6 µM
MDA-MB-435
  GI50: 19.4 µM
  TGI: 49.4 µM
OVCAR-3 ovarian
  GI50: 2.89 µM
  TGI: 19.9 µM
